This is an account of results in US9409879B2, “Total synthesis of redox-active 1.4-naphthoquinones and their metabolites and their therapeutic use as antimalarial and schistomicidal agents” (CENTRE NATIONAL DE LA RECHERCHE SCIENTIFIQUE, priority 2011, dated 2016).

Counter-ions that a name gives are not always drawn.

One data set deals with hematin polymerization. Put plainly: Inhibition of the hematin polymerisation (β-hematin formation), UV-Vis absorbance at 405 nm. Format: biochemical. Particulars: for Maximum inhibition (%) / IC50 drug (equiv.)/hematin (equiv.) ratio: inhibition of β-hematin formation; for IC50 drug (equiv.)/hematin (equiv.) ratio: absorbance at 405 nm. How it is done:
The antischistosomial effect is measured by the evaluation of the ability of the compounds to inhibit hematin polymerization according to the biochemical assay previously developed by Ncokazi. K. K. Egan. T. J. Anal. Biochem. 2005, 338, 306-319 adapted to the compounds of the present invention. The assays were monitored by UV-Vis absorption spectrophotometry and IC50 values for inhibition of β-hematin formation were determined from the absorbance at 405 nm versus the drug (equiv.)/hematin (equiv.) ratio.

The subject of another data set is P. falciparum strain 3D7. Put plainly: Antimalarial assay, chloroquine-sensitive P. falciparum 3D7. Particulars: chloroquine-sensitive strain 3D7. It counts as cell-based, Plasmodium falciparum.
Data set [1] is described as follows: Complex formation with hematin (apparent association constants). It counts as binding. Particulars: pH 7.5; 1:1 charge-transfer complexes with hematin. The text has this: Both 3-benzylnaphtoquinone derivatives form 1:2 or 2:1 complexes with hematin displaying apparent association constants at pH 7.5 of about 10^11-10^13 M^−1. Also the benzoxanthone derivative LJ144K form 1:1 charge-transfer complexes with hematin displaying apparent association constants at pH 7.5 of about 10^5-10^6 M^−1.

The next data set relates to P. falciparum strain Dd2. The data set can be described thus: 3H-hypoxanthine incorporation antiproliferation assay, P. falciparum Dd2. It counts as cell-based, Plasmodium falciparum. The conditions noted are these: multi-resistant P. falciparum strain Dd2. How it is done:
Infected erythrocytes in ring stage (0.5% parasitemia, 2.5% hematocrit) in 96-well plates were exposed to the compounds for 48 h and then to radioactive hypoxanthine for 24 h. The amount of radioactivity in precipitable material served as an index of cell proliferation.

For orientation: melting point means the temperature, or range, at which the solid turns liquid. Regarding `CC1=C(Cc2ccc(C(F)(F)F)cc2)C(=O)c2cc(OS(=O)(=O)C(F)(F)F)ccc2C1=O` (as salt: methanesulfonate) [Compound 12.29, 6-methyl-5,8-dioxo-7-(4-(trifluoromethyl)benzyl)-5,8-dihydronaphthalen-2-yl trifluoromethanesulfonate], the melting point turned out to be 127 °C.
In turn, `CC1=C(Cc2ccc(C(F)(F)F)cc2)C(=O)c2ccc(OS(=O)(=O)C(F)(F)F)cc2C1=O` (as salt: methanesulfonate) [Compound 12.30, 7-methyl-5,8-dioxo-6-(4-(trifluoromethyl)benzyl)-5,8-dihydronaphthalen-2-yl trifluoromethanesulfonate] gave a melting point of 87 to 88 °C.
Same read-out and setting: for `COc1ccc2c(c1)C(=O)C(Cc1ccc(Br)cc1)=C(C)C2=O` [Compound 12.1, 3-(4-bromobenzyl)-6-methoxy-2-methylnaphthalene-1,4-dione] the value was 135 to 137 °C.
Turning to `COc1ccc2c(c1)C(=O)C(Cc1ccc(C(F)(F)F)cc1)=C(C)C2=O` [Compound 12.2], the melting point was in the range of 86 to 87 °C.
The same measure, in the same setting: the value for `COc1cc(CC2=C(C)C(=O)c3ccc(OC)cc3C2=O)cc(OC)c1` [Compound 12.4, 3-(3,5-dimethoxybenzyl)-6-methoxy-2-methylnaphthalene-1,4-dione] was 149 °C.
On the same count and under the same terms, for `CC1=C(Cc2ccc(Br)cc2)C(=O)c2cc(F)ccc2C1=O` [Compound 12.5, 3-(4-bromobenzyl)-6-fluoro-2-methylnaphthalene-1,4-dione] the value was 127 to 129 °C; for `COc1ccc2c(c1)C(=O)C(C)=C(Cc1ccc(Br)cc1)C2=O` [Compound 12.7, 3-(4-bromobenzyl)-7-methoxy-2-methylnaphthalene-1,4-dione], 149 to 151 °C.
`COc1ccc2c(c1)C(=O)C(C)=C(Cc1ccc(C(F)(F)F)cc1)C2=O` [Compound 12.8] yielded a melting point of 137 to 139 °C.
The same measure, in the same setting: for `COc1cc(CC2=C(C)C(=O)c3cc(OC)ccc3C2=O)cc(OC)c1` [Compound 12.9, 3-(3,5-dimethoxybenzyl)-7-methoxy-2-methylnaphthalene-1,4-dione] the value was 151 to 153 °C.
On the same count and under the same terms, the value for `COc1cc2c(cc1OC)C(=O)C(Cc1ccc(C(F)(F)F)cc1)=C(C)C2=O` [Compound 12.11, 6,7-dimethoxy-2-methyl-3-(4-(trifluoromethyl)benzyl)naphthalene-1,4-dione] was > 200 °C (dec.); that for `COc1cc2c(cc1OC)C(=O)C(Cc1ccc(Br)cc1)=C(C)C2=O` [Compound 12.12, 6,7-dimethoxy-2-methyl-3-(4-bromobenzyl)naphthalene-1,4-dione] was > 200 °C (dec.); that for `COc1cc(CC2=C(C)C(=O)c3cc(OC)c(OC)cc3C2=O)cc(OC)c1` [Compound 12.13, 2-(3,5-dimethoxybenzyl)-6,7-dimethoxy-3-methylnaphthalene-1,4-dione] was 168 to 169 °C.
Still for that read-out and setting: the value for `COc1ccc(OC)c(CC2=C(C)C(=O)c3cc(OC)c(OC)cc3C2=O)c1` [Compound 12.14, 2-14(2,5-dimethoxybenzyl)-6,7-dimethoxy-3-methylnaphthalene-1,4-dione] was 166 to 167 °C.
Compound `CC1=C(Cc2ccc(Br)cc2)C(=O)c2ccc(F)cc2C1=O` [Compound 12.16, 2-(4-bromobenzyl)-6-fluoro-3-methylnaphthalene-1,4-dione] registered a melting point of 107 °C.
As to `CC1=C(Cc2ccc(F)c(Cl)c2)C(=O)c2ccc(F)cc2C1=O` [Compound 12.17, 2-(3-chloro-4-fluorobenzyl)-6-fluoro-3-methylnaphthalene-1,4-dione], the melting point is 117 to 118 °C.
`CC1=C(Cc2ccc(F)c(C(F)(F)F)c2)C(=O)c2ccc(F)cc2C1=O` [Compound 12.18, 6-fluoro-2-(4-fluoro-3-(trifluoromethyl)benzyl)-3-methylnaphthalene-1,4-dione] had a melting point of 106 to 107 °C.
On the same count and under the same terms, for `CC1=C(Cc2ccc(C(F)(F)F)cc2)C(=O)c2c(C)cccc2C1=O` [Compound 12.19, 2,5-dimethyl-3-(4-(trifluoromethyl)benzyl)naphthalene-1,4-dione] the value was 87 to 88 °C; for `CC1=C(Cc2ccc(Br)cc2)C(=O)c2c(C)cccc2C1=O` [Compound 12.20, 3-(4-bromobenzyl)-2,5-dimethylnaphthalene-1,4-dione], 149 to 150 °C; for `CC1=C(Cc2ccc(C(F)(F)F)cc2)C(=O)c2ccc(C)cc2C1=O` [Compound 12.23, 2,7-dimethyl-3-(4-(trifluoromethyl)benzyl)naphthalene-1,4-dione], 102 °C.
The compound `CC1=C(Cc2ccc(Br)cc2)C(=O)c2ccc(C)cc2C1=O` [Compound 12.24, 2,7-dimethyl-3-(4-bromobenzyl)naphthalene-1,4-dione] gave a melting point of 122 to 123 °C.
On to `CC1=C(Cc2ccc(C(F)(F)F)cc2)C(=O)c2cccc(C)c2C1=O` [Compound 12.25, 2,8-dimethyl-3-(4-(trifluoromethyl)benzyl)naphthalene-1,4-dione], for which the melting point is 98 to 99 °C.
Take `CC1=C(Cc2ccc(Br)cc2)C(=O)c2cccc(C)c2C1=O` [Compound 12.26, 2,8-dimethyl-3-(4-bromobenzyl)naphthalene-1,4-dione]: the melting point lay within 116 to 118 °C.
On to `CC1=C(Cc2ccc(C(F)(F)F)cc2)C(=O)c2cc(C)c(C)cc2C1=O` [Compound 12.27, 2,6,7-trimethyl-3-(4-(trifluoromethyl)benzyl)naphthalene-1,4-dione], for which the melting point lay in the range of 143 to 144 °C.
Take `CC1=C(Cc2ccc(Br)cc2)C(=O)c2cc(C)c(C)cc2C1=O` [Compound 12.28, 2,6,7-trimethyl-3-(4-bromobenzyl)naphthalene-1,4-dione]: the melting point lay within 129 to 130 °C.
As to `Cc1c(O)c2ccccc2c2oc3cc(C(F)(F)F)ccc3c(=O)c12` [LJ144K, 5-hydroxy-6-methyl-10-(trifluoromethyl)-7H-benzo[c]xanthen-7-one], in the data set on hematin polymerization, the “Maximum inhibition (%)” value is 75% and the “IC50 drug (equiv.)/hematin (equiv.) ratio” value was 2.5 drug (equiv.)/hematin (equiv.) ratio. In addition, in the data set with P. falciparum strain 3D7, the “IC50 values, antimalarial effects” value is “submicromolar range”. The “apparent association constants with hematin” value in data set [1] is reported as 10^5-10^6 M^−1.
For the compound `CC1=C(Cc2ccncc2)C(=O)c2ccccc2C1=O` [LJ186], in the data set on hematin polymerization, the “inhibition of the β-hematin polymerization” value is “very potent inhibitors”, the “Maximum inhibition (%)” value was 80% and the “IC50 drug (equiv.)/hematin (equiv.) ratio” value is 4.2 drug (equiv.)/hematin (equiv.) ratio. In the data set on P. falciparum strain Dd2, the “antimalarial activity relative to chloroquine and P_TM29” value was “more active than chloroquine or as active as P_TM29”.
